Measurements published in ChEMBL document CHEMBL3352469, “Pyrrolo- and pyridomorphinans: non-selective opioid antagonists and delta opioid agonists/mu opioid partial agonists” (Bioorg Med Chem, 2014).

Assays:
[1] = molecular target: T1, Nociceptin receptor (Homo sapiens, UniProt P41146); assay: Agonist activity at human recombinant NOPR receptor expressed in CHO cell membranes at 10 uM after 60 mins by [35S]GTPgammaS binding assay relative to nociceptin; assay type: functional
[2] = molecular target: T2, Mu-type opioid receptor (Homo sapiens, UniProt P35372); assay: Agonist activity at human recombinant mu opioid receptor expressed in CHO cell membranes at 10 uM after 60 mins by [35S]GTPgammaS binding assay relative to DAMGO; assay type: functional
[3] = molecular target: T3, Kappa-type opioid receptor (Homo sapiens, UniProt P41145); assay: Agonist activity at human recombinant kappa opioid receptor expressed in CHO cell membranes at 10 uM after 60 mins by [35S]GTPgammaS binding assay relative to U69593; assay type: functional
[4] = molecular target: T2, Mu-type opioid receptor; assay: Antagonist activity at human recombinant mu opioid receptor expressed in CHO cell membranes assessed as inhibition of DAMGO-induced response after 60 mins by [35S]GTPgammaS binding assay; assay type: functional
[5] = molecular target: T2, Mu-type opioid receptor; assay: Displacement of [3H]DAMGO from human recombinant mu opioid receptor expressed in CHO cell membranes after 60 mins by scintillation counting method
[6] = molecular target: T4, Delta-type opioid receptor (Homo sapiens, UniProt P41143); assay: Antagonist activity at human recombinant delta opioid receptor expressed in CHO cell membranes assessed as inhibition of DPDPE-induced response after 60 mins by [35S]GTPgammaS binding assay; assay type: functional
[7] = molecular target: T3, Kappa-type opioid receptor; assay: Displacement of [3H]U69593 from human recombinant kappa opioid receptor expressed in CHO cell membranes after 60 mins by scintillation counting method
[8] = molecular target: T4, Delta-type opioid receptor; assay: Displacement of [3H]Cl-DPDPE from human recombinant delta opioid receptor expressed in CHO cell membranes after 60 mins by scintillation counting method
[9] = species: Homo sapiens; assay: Selectivity for human recombinant delta opioid receptor over human kappa opioid receptor
[10] = species: Homo sapiens; assay: Selectivity for human recombinant delta opioid receptor over human mu opioid receptor
[11] = molecular target: T3, Kappa-type opioid receptor; assay: Agonist activity at human recombinant kappa opioid receptor expressed in CHO cell membranes after 60 mins by [35S]GTPgammaS binding assay; assay type: functional
[12] = molecular target: T3, Kappa-type opioid receptor; assay: Agonist activity at human recombinant kappa opioid receptor expressed in CHO cell membranes after 60 mins by [35S]GTPgammaS binding assay relative to U69593; assay type: functional
[13] = molecular target: T2, Mu-type opioid receptor; assay: Agonist activity at human recombinant mu opioid receptor expressed in CHO cell membranes after 60 mins by [35S]GTPgammaS binding assay relative to DAMGO; assay type: functional
[14] = molecular target: T4, Delta-type opioid receptor; assay: Agonist activity at human recombinant delta opioid receptor expressed in CHO cell membranes after 60 mins by [35S]GTPgammaS binding assay relative to DPDPE; assay type: functional
[15] = molecular target: T4, Delta-type opioid receptor; assay: Agonist activity at human recombinant delta opioid receptor expressed in CHO cell membranes after 60 mins by [35S]GTPgammaS binding assay; assay type: functional
[16] = molecular target: T2, Mu-type opioid receptor; assay: Agonist activity at human recombinant mu opioid receptor expressed in CHO cell membranes after 60 mins by [35S]GTPgammaS binding assay; assay type: functional
[17] = molecular target: T1, Nociceptin receptor; assay: Displacement of [3H]nociceptin from human recombinant NOP receptor expressed in CHO cell membranes after 60 mins by scintillation counting method
[18] = molecular target: T3, Kappa-type opioid receptor; assay: Antagonist activity at human recombinant kappa opioid receptor expressed in CHO cell membranes assessed as inhibition of U69593-induced response after 60 mins by [35S]GTPgammaS binding assay; assay type: functional
[19] = species: Homo sapiens; assay: Selectivity for human recombinant mu opioid receptor over human delta opioid receptor
[20] = species: Homo sapiens; assay: Selectivity for human recombinant mu opioid receptor over human kappa opioid receptor

T2 sequence (P35372 whole entry): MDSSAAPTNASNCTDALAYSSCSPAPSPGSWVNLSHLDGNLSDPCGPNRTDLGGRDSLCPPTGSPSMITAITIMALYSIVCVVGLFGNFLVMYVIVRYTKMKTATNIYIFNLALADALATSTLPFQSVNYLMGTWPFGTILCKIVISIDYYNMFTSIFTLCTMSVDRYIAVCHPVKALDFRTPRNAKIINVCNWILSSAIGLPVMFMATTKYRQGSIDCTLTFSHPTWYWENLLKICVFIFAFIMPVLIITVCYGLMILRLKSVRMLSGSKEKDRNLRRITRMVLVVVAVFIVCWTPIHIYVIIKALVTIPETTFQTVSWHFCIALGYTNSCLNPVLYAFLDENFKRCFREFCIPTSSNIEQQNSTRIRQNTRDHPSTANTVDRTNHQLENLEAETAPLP
T3 sequence (P41145 whole entry): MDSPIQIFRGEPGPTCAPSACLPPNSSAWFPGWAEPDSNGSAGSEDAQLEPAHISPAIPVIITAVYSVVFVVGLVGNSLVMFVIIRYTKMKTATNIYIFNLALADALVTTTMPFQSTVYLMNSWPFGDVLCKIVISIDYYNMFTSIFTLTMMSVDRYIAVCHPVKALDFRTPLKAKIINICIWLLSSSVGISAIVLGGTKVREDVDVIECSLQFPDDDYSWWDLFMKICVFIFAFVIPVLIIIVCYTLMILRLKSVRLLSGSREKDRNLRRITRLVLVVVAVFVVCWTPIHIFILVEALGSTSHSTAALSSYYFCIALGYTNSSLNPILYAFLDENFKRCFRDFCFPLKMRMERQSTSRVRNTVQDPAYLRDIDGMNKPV
T1 sequence (P41146 whole entry): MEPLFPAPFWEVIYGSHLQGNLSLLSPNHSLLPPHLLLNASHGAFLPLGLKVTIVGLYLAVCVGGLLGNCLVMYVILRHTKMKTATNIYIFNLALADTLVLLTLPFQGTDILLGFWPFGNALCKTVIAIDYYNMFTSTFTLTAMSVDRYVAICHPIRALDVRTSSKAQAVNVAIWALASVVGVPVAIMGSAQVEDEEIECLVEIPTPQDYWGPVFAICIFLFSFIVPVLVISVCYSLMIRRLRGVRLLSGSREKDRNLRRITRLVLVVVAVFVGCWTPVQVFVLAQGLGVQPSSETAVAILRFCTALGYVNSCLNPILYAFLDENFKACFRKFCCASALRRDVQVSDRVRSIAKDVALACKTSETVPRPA
T4 sequence (P41143 whole entry): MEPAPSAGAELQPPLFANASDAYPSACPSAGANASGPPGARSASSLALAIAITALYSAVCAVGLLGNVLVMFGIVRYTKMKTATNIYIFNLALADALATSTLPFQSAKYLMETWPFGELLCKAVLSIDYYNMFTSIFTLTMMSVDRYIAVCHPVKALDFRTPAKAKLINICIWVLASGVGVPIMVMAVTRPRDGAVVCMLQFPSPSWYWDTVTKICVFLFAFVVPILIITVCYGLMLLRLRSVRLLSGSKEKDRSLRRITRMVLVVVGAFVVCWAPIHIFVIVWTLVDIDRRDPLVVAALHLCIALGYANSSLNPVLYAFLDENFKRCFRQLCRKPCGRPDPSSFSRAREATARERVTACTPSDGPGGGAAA

Structure (SMILES) | Smax [1] [%] | Smax [2] [%] | Smax [3] [%] | Ke [4] [nM] | Ki [5] [nM] | Ki [7] [nM] | Ki [8] [nM] | Activity [13] [%] | Activity [14] [%] | EC50 [15] [nM] | EC50 [16] [nM] | Ke [18] [nM] | further results
C=CCN1CC[C@]23c4c5ccc(O)c4O[C@H]2C2=C(CCC(=O)N2CCc2ccccc2)C[C@@]3(O)[C@H]1C5 | 4 | -2 | -15 | – | – | – | – | – | – | – | – | – | –
CCOC(=O)Cc1c2c(n(Cc3ccccc3)c1O)[C@@H]1Oc3c(O)ccc4c3[C@@]13CCN(CC1CC1)[C@H](C4)[C@]3(O)C2 | – | – | – | 6.61 | 8.65 | 4.79 | 10 | – | – | – | – | – | Ke [6]: 6.79 nM
Cc1[nH]c2c(c1Cc1ccccc1)C[C@@]1(O)[C@H]3Cc4ccc(O)c5c4[C@@]1(CCN3CC1CC1)[C@H]2O5 | – | – | – | – | – | – | – | – | – | – | – | – | Selectivity ratio [9]: 40; Selectivity ratio [10]: 40
CCOC(=O)Cc1c2c(n(Cc3ccccc3)c1O)[C@@H]1Oc3c(O)ccc4c3[C@@]13CCN(C)[C@H](C4)[C@]3(O)C2 | – | – | – | – | 13.2 | 159 | 82.1 | 86 | 74 | 42.5 | 70.5 | – | EC50 [11]: 434 nM; Activity [12]: 23%
O=C1CCC2=C([C@@H]3Oc4c(O)ccc5c4[C@@]34CCN(CC3CC3)[C@H](C5)[C@]4(O)C2)N1Cc1ccccc1 | 12 | -1 | -20 | – | 0.18 | 0.15 | 0.36 | – | – | – | – | – | Ki [17]: 1300 nM
O=C1[C@@H](CCO)CC2=C([C@@H]3Oc4c(O)ccc5c4[C@@]34CCN(CC3CC3)[C@H](C5)[C@]4(O)C2)N1Cc1ccccc1 | – | – | – | 1.62 | 1.54 | 2.76 | 2.38 | – | – | – | – | 2.22 | Ke [6]: 0.93 nM
O=C1CCC2=C([C@@H]3Oc4c(O)ccc5c4[C@@]34CCN(CC3CC3)[C@H](C5)[C@]4(O)C2)N1Cc1cccc(F)c1 | 7 | -1 | -9 | – | – | – | – | – | – | – | – | – | –
C[C@H]1CC2=C([C@@H]3Oc4c(O)ccc5c4[C@@]34CCN(CC3CC3)[C@H](C5)[C@]4(O)C2)N(Cc2ccccc2)C1=O | – | – | – | 0.6 | 0.42 | 0.71 | 1.58 | – | – | – | – | 2.03 | Ke [6]: 0.57 nM
CN1C(=O)[C@H](CCO)CC2=C1[C@@H]1Oc3c(O)ccc4c3[C@@]13CCN(C)[C@H](C4)[C@]3(O)C2 | – | – | – | – | 2.37 | 48.7 | 3.59 | 36 | 66 | 11.8 | 163 | 321 | –
O=C1CCC2=C([C@@H]3Oc4c(O)ccc5c4[C@@]34CCN(CC3CC3)[C@H](C5)[C@]4(O)C2)N1CC1CCCCC1 | 5 | -1 | -5 | – | 0.11 | 0.33 | 0.28 | – | – | – | – | – | Ki [17]: 880 nM
O=C1CCC2=C([C@@H]3Oc4c(O)ccc5c4[C@@]34CCN(CC3CC3)[C@H](C5)[C@]4(O)C2)N1Cc1cccc(Cl)c1 | 7 | -1 | -11 | – | – | – | – | – | – | – | – | – | –
CN1CC[C@]23c4c5ccc(O)c4O[C@H]2C2=C(C[C@H](CCO)C(=O)N2Cc2ccccc2)C[C@@]3(O)[C@H]1C5 | – | – | – | – | 3 | 15.6 | 2.85 | 36 | 68 | 10.6 | 94.9 | 16.8 | –
CN1C(=O)[C@@H](CCO)CC2=C1[C@@H]1Oc3c(O)ccc4c3[C@@]13CCN(C)[C@H](C4)[C@]3(O)C2 | – | – | – | – | 12.8 | 182 | 9.25 | 37 | 80 | 30.6 | 709 | 2140 | –
CN1C(=O)CCC2=C1[C@@H]1Oc3c(O)ccc4c3[C@@]13CCN(C)[C@H](C4)[C@]3(O)C2 | – | – | – | – | 1.23 | 20.4 | 9.39 | 40 | 67 | 25.5 | 80 | – | –
C[C@@H]1CC2=C([C@@H]3Oc4c(O)ccc5c4[C@@]34CCN(CC3CC3)[C@H](C5)[C@]4(O)C2)N(Cc2ccccc2)C1=O | – | – | – | 0.5 | 0.56 | 0.95 | 0.85 | – | – | – | – | 0.23 | Ke [6]: 0.23 nM
CN1CC[C@]23c4c5ccc(O)c4O[C@H]2C2=C(CCC(=O)N2Cc2ccccc2)C[C@@]3(O)[C@H]1C5 | – | – | – | – | 0.29 | 1.98 | 0.92 | 52 | – | 3 | 4.97 | 21.3 | Ratio Ki [19]: 3; Ratio Ki [20]: 3
O=C1[C@H](CCO)CC2=C([C@@H]3Oc4c(O)ccc5c4[C@@]34CCN(CC3CC3)[C@H](C5)[C@]4(O)C2)N1Cc1ccccc1 | – | – | – | 0.35 | 0.43 | 1.29 | 0.7 | – | – | – | – | 0.73 | Ke [6]: 0.47 nM
CN1CC[C@]23c4c5ccc(O)c4O[C@H]2C2=C(C[C@@H](CCO)C(=O)N2Cc2ccccc2)C[C@@]3(O)[C@H]1C5 | – | – | – | 32.9 | 2.03 | 4.68 | 1.02 | – | 73 | 2.37 | – | 29.3 | –
O=C1CCC2=C([C@@H]3Oc4c(O)ccc5c4[C@@]34CCN(CC3CC3)[C@H](C5)[C@]4(O)C2)N1CCc1ccccc1 | 5 | 1 | -10 | – | – | – | – | – | – | – | – | – | Ki [17]: 1500 nM
